Laboratory results taken from patent US20030087830A1, “Low molecular weight components of cartilage, complexes of metals with amino acids, DI-peptides and analogs thereof; processes for preparation and therapeutic uses thereof” (priority 2001, published 2003).

Experiments:
[1] = system: blood vessel formation in the vitelline membrane of chick embryo; assay: Embryonic Vascularization Test (EVT); type: in vivo
Procedure: The Embryonic Vascularization Test (EVT) was performed to determine the ability of test samples to inhibit the formation of new blood vessels (antiangiogenic activity).
The normal development of a chick embryo involves the formation of an external vascular system located in the vitelline membrane which carries nutrients from the vitellus (yolk) to the developing embryo. When placed onto the vitelline membrane, antiangiogenic substances can inhibit the blood vessel formation that occurs in the vitelline membrane. Briefly, methylcellulose discs (an inert solid and transparent matrix) containing different test samples were placed on the external border of the vascular perimeter of the vitelline membrane, where the angiogenic process occurs. Vascularization was assessed 24 hours after disc deposition, and results were expressed as the percent of embryos in which blood vessel formation was affected. The blood vessel formation was considered affected when its growing path was either deviated, or diminished or when there was no growth observed beyond the disc as compared to the negative control. The results are expressed as 0, +, and ++ where 0 is for a lower response than 25 percent of the eggs; + is for a response between 25 and 50 percent; and ++ is for an antiangiogenic response observed in more than 50 percent of the eggs.
According to the endothelial cell proliferation assay, the relative effectiveness of two compounds is compared by reference to the EC50 thereof. The EC50 is the concentration of compound at which the number of endothelial cells is reduced by 50% as compared to control. The efficacy of the test samples in EVT is established by the percent of eggs with altered angiogenesis at a given inhibitor dose of 0.6 mg of copper equivalent (see FIG. 6 for examples). A comparison of the antiangiogenic activity of the compounds of the present invention with divalent metal salts (CuCl2, MgCl2, ZnCl2, CoCl2) and uncoupled alpha-amino acids, alpha-imino acids, dipeptides, and nitrogenated molecules comprising a carboxylic acid group, such as creatine, is provided to illustrate that the formation of the amino acid-copper complex gives rise to complexes having antiangiogenic activity.

[2] = system: Lewis lung carcinoma clone M27; assay: Lewis Lung Carcinoma metastatic mouse model (LLC); type: in vivo, C57BL/10 female mice; conditions: 2.5 mg/kg, intraperitoneal daily for two weeks; lung surface metastases
Description: The Lewis Lung Carcinoma mouse model (LLC) was used to determine the ability of different test samples to inhibit the formation of metastases within the lung. The Lewis lung carcinoma clone M27, with a high metastatic potential to the lung, was established by Dr P. Brodt (Brodt P, Characterization of two highly metastatic variants of Lewis lung carcinoma with different organ specificities. Cancer Res., 46: 2442, 1986). This model is well established and is known for its predictive correlation between in vitro and in vivo activity. Briefly, LLC cells were transplanted subcutaneously in the axillary region of the right flank of C57BL/10 female mice (Charles River Inc.) When the primary tumor reached a size of 0.5-1.0 cm^3 (day 10 post-inoculation), the tumor was carefully separated from the surrounding healthy tissues. Treatment with different test samples started the day following tumor removal (day 11 post-inoculation). Saline or different test samples were administered daily for two weeks by intraperitoneal injection (0.2 ml of each dose). As previous experiments had shown that a period of approximately two weeks after removal of the primary tumor was sufficient to obtain an average of 30 to 50 nodules on the lung surface, animals were sacrificed in a CO2 chamber two weeks later. Following autopsy, both lungs were removed, weighed and fixed in 10% Bouin's fixative. Lung surface metastases were counted using a stereomicroscope (4×).

L-Asp Cu L-Asp [Compound 6]
EVT (% of inhibition) ([1]; 0.6 mg copper equivalent, percent of embryos with affected blood vessel formation, 24 hours after disc deposition): ±38% of inhibition | EVT (% of inhibition) ([1]; activity at 0.6 mg equivalent Copper): + (+ between 25-50% of inhibition) | Antimetastatic activity (% inhibition) (at 2.5 mg/kg of Cu-complex) [2]: 26.9%
